According to a melting point compilation (Tetko et al.; mined from patent text by program, amines drawn as free bases though some values may be those of a salt):

Compound	melting point
COC(=O)NC[C@H]1CN(c2ccc(-c3nc(Cn4cccn4)cs3)c(F)c2)C(=O)O1	142 to 144 °C
O=C(Nc1nccs1)C(CC1CCCC1)c1ccc(S(=O)(=O)C(F)(F)F)cc1 (stereo not given)	48 to 52 °C
COc1cc(C2=C(c3cc4ccccc4[nH]3)C(=O)NC2=O)cc(OC)c1OC	252 °C
O=Cc1c2ccccc2cc2c1sc1ccccc12	199 °C
CCOCc1cnc2c(NC(=O)c3c(Cl)cccc3Cl)cccc2c1Cl	121 to 123 °C
O=C(c1ccccc1)c1cccc2c1NCC2	124 to 125 °C
O=C1CSC(C(=O)O)Cc2cc3c(cc21)OCO3 (stereo not given)	234 to 235 °C
COC(=O)c1c(Cc2ccc(C(=O)NC3CCC(O)CC3)cc2)c(=O)c2ccc(Cl)cc2n1-c1ccccc1 (stereo not given)	151 to 152 °C
CCCCc1nn(-c2cc([N+](=O)[O-])ccc2Cl)c(=O)[nH]1	145 to 147 °C
CC1(C)OC(=O)Nc2ccc(-c3cc(F)cc(F)c3)cc21	218 to 219 °C
Cc1ccc(-c2cc(C(F)(F)F)n3cnc(C#N)c3n2)cc1C(F)(F)F	220 °C
COc1cn(-c2ccccc2F)nc(-c2ccnn2-c2ccccc2)c1=O	163 to 165 °C
Cc1nnc2c(Cl)nc3ccc(Cl)cc3n12	> 280 °C
CCCSc1sc(C(N)=O)c2c1-c1nn(C)cc1CC2	208 to 209 °C
COc1ccc(C(=O)Nc2ccccc2C(=O)NCCCC(=O)O)c(O)c1	201 to 203 °C
CCOC(=O)N1CCN(CCNc2ncnc3c2sc2nc(N(C)C)c4c(c23)CC(C)(C)CC4)CC1	138 to 140 °C
COc1ccc(C(=O)Nc2ccc(F)cc2F)cc1N	166 to 168 °C
CC(=O)Oc1ccc2sc(S(N)(=O)=O)cc2c1	129 to 132 °C
CC1(C)Oc2ccc3nc(C(N)=O)ccc3c2C(NCCc2ccccc2)C1O (stereo not given)	197 to 199 °C
Fc1ccc(C2CC3CCC(C3)C23CO3)cc1 (stereo not given)	178 to 180 °C
CCCCCCC(C)(C)c1ccc([C@@H]2CC(=O)C[C@@H](O)C2)c(OCc2ccccc2)c1 (relative stereo)	95 °C
CCCN1CCC(c2n[nH]c3cc(F)ccc23)CC1	175 to 177 °C
O=C1c2ccc(Cl)cc2C(=O)N1C1CCN(CCc2c[nH]c3ccccc23)CC1	188 to 190 °C
Cc1cc(C2=C(c3cc(C)sc3C)CCC=C2)c(C)s1	55 to 57 °C
O=Cc1cc(N2C(=O)C3=C(CCCC3)C2=O)ccc1Cl	140 to 141 °C

Compound	melting point
CCc1cc(CC)c2oc(C(=O)O)cc(=O)c2c1O	218 to 220 °C
CS(=O)(=O)N=C(NCC(=O)O)Nc1ccc(C#N)cc1	170 °C
CN1CCN(C(=O)CCC(=O)N[C@@H]2CN3C(=O)N(c4cc(Cl)nc(Cl)c4)C(=O)[C@@]3(Cc3ccc(OC(F)(F)F)cc3)C2)CC1	70 °C
O=C(NCCBr)Oc1ccccc1	57 to 60 °C
Cc1cc(-c2nc(-c3ccc(OC(F)(F)F)cc3)no2)nn1Cc1ccnc(N2CCN(C3CC3)CC2)c1	140 °C
CC(Sc1ccc(NC(=O)NC(=O)c2ccccc2Cl)cc1)c1ccccc1 (stereo not given)	226 °C
COc1ccccc1CN1CCC(CCC(=O)c2ccc(N3CCCC3)cc2)CC1	89 to 91 °C
CC(C)(C)OC(=O)c1nc(-c2ccc(Cl)cc2Cl)n(-c2ccc(Cl)cc2)c1C#N	210 to 212 °C
Cc1c(C(=O)NC(C)(C)CO)cccc1[N+](=O)[O-]	144 to 145 °C
O=[N+]([O-])CS(=O)(=O)c1ccc(CO)cc1	73 to 75 °C
Cn1nnnc1SCCSc1ccccn1	77 to 79.5 °C
COC(=O)C1=C(C)NC(C)=C(C(=O)OC)C1c1cccc(Nc2c(NCCCN3CCN(C4CCCCC4)CC3)c(=O)c2=O)c1	210 to 212 °C
CC(C)(C)C(Cl)=NNc1ccc([N+](=O)[O-])cc1	94.5 to 95.5 °C
CN(C)CCc1ccc(O)c2nc[nH]c12	245 to 252 °C
COc1cc(COc2nn(CCO)cc2CO)ccc1OCc1nc(-c2ccco2)oc1C	120 to 122 °C
COC=C1CN(C(c2ccccc2)c2ccccc2)C1	56 to 58 °C
CNc1cc(Oc2ccc(NC(=O)Nc3ccc(-c4ccncc4)c(C(F)(F)F)c3)cc2)ncn1	127 to 130 °C
Cn1c(=O)c(NS(C)(=O)=O)c(N2CCN(C(=O)c3cccs3)CC2)c2ccccc21	223 °C
NC1Cc2ccccc2CN(CC(=O)O)C1=O (stereo not given)	266 to 268 °C
[N-]=[N+]=Nc1cc(OCCO)ncn1	49 to 50 °C
CC(C)(C)NCC(O)COc1cc(Cl)ccc1-c1ccc(=S)[nH]n1 (stereo not given)	195 to 198 °C
CCCCc1nc2c(N)nc3ccccc3c2n1CC(C)(C)C(N)=O	231 to 233 °C
CCOC(=O)N1CCC(CCCOc2ccc(C3=NCCCO3)cc2)CC1	128 °C
O=C(NCCN1CCC2(CC1)C(=O)NCN2c1ccccc1)c1cccs1	194 °C
Cc1ccccc1Sc1c(O)cc(-c2ccccc2)oc1=O	210 to 211 °C

Compound	melting point
COC(=O)c1ccc2scc(-c3ccc(SC)cc3)c2c1	135 to 136 °C
O=c1oc2ccccc2c(O)c1CCOc1ccccc1	157 to 159 °C
Cc1sc(-c2ccccc2)nc1COc1cc(COc2ncccc2CC#N)on1	103 to 104 °C
O=C1OC(CO)CN1c1ccc2ccccc2c1 (stereo not given)	174 °C
CCN1C(=O)C(C)(C)C(=O)N(C)c2cc(CN(CCn3ccc4oc(C)cc4c3=O)Cc3ccccc3C#N)ccc21	157 to 159 °C
Cc1ccc(NC(=O)Nc2ccc(Oc3cc(Cl)ncn3)cc2)cc1C(F)(F)F	183 to 184 °C
COCCOc1ccc(/C=C/C2(O)CN3CCC2CC3)cc1 (stereo not given)	164 to 166 °C
CCOC(=O)c1cn(C2CC2)c2c(C)c(F)c(F)cc2c1=O	220 to 221 °C
COc1nsc(N[C@@H](CC(C)C)C(=O)N2CCC[C@H]2C(=O)O)n1	89 to 92 °C
CC1=C(C(=O)NCc2ccncc2)SCN1n1ccc(O)cc1=O	275 to 278 °C
COC(=O)C1=C(C)NC(c2ccccc2)=C(C(=O)O)C1c1ccc([N+](=O)[O-])cc1 (stereo not given)	190 to 191 °C
Cn1nc(-c2ccccc2Cl)nc1-c1ccccc1Cl	82 to 85 °C
CCOC(=O)c1cc2c(C)ccc3c2n1CCC3	51 to 52 °C
Cc1noc(NS(=O)(=O)c2cccc(-c3ccccc3)c2)c1Br	78 to 82 °C
CCc1c2c(nn1CC)c(N)nc1ccccc12	234 to 236 °C
Cn1cc(C(=O)c2ccc3ccccc3c2)cc1C(=O)CCl	148 to 151 °C
COC(=O)COc1ccc(C(=O)Nc2ccccc2Sc2ccccc2-c2nnn[nH]2)cc1	204 to 205 °C
Cn1cnc2nc(C=Cc3ccc(Cl)cc3)nn2c1=S	> 300 °C
N#CC(c1ccc(Cl)cc1)c1c(Cl)cc(NN=Cc2ccccc2)cc1Cl (stereo not given)	162 to 163 °C
COCCCNS(=O)(=O)NC(=O)OCCCc1ccc(OCCOC)cc1Oc1ncc(Cl)cc1Cl	87.9 to 89 °C
CCOCc1nc2cnc3cc(OCCNC(=O)OC(C)(C)C)ccc3c2n1CC1COC(C)(C)O1 (stereo not given)	152 to 153 °C
CCCOc1ccc([N+](=O)[O-])c(C)c1Cl	42 to 43 °C
CC(C)n1nc(-c2cc(C(=O)NCCO)cnc2-c2ccccc2)ccc1=O	165 to 167 °C
NS(=O)(=O)c1cccc(-c2cccc(-c3nc(-c4ccc(F)cc4)cc(C(F)(F)F)n3)c2)c1	208 °C
O=C(CNc1ccccc1F)Nc1ccc([N+](=O)[O-])cc1	150 to 153 °C

Compound	melting point
Cn1cc2c([C@@H]3C[C@H]3CNC(=O)c3ccc(Br)cc3)cccc2n1	140 to 142 °C
CON1C(C)(C)CC(O)CC1(C)C	92 to 93 °C
CC(=O)NCC(O)(Cn1cncn1)c1ccc(Cl)cc1Cl (stereo not given)	178 to 179 °C
O=C1Nc2cc(Cl)c(Cl)cc2C1c1ccccc1Cl (stereo not given)	198 to 201 °C
COc1cc(CCN2CCC[C@H](C(C#N)(c3ccccc3)c3ccccc3)C2)ccc1O	159 to 160 °C
CCOC(=O)C1=C(CC)NCN(c2ccc(Cl)cc2)C1=O	118 to 120 °C
CS(=O)(=O)c1ccc(-c2cnn(-c3ccc(F)cc3F)c(=O)c2-c2ccc(F)cc2)cc1	245 to 247 °C
CC(=O)c1cnc2onc(C)c2c1O	162 °C
CCOCc1nc2c(N)nc(C)c(C)c2n1CCOCC#Cc1cncnc1	122 to 124 °C
CCCCCCCCCCCCCCCCc1cc(-c2ccccn2)nc(-c2ccccn2)c1	97.5 to 99 °C
Cn1ccnc1S(=O)(=O)C(C#N)=Cc1c(Cl)n(CC2CC2)c2ccccc12	214 °C
CC(C)COC(c1cc(Cl)cc([N+](=O)[O-])c1O)c1cc(Cl)cc([N+](=O)[O-])c1O	95 °C
FC(F)(F)c1ccc(CN2CC3(COc4ccc(-c5cccnc5)cc43)c3ccccc32)o1 (stereo not given)	98 to 100 °C
CC(C)Oc1cc(-n2nc(C(F)(F)F)n(C)c2=O)c(Cl)cc1Cl	96 to 98 °C
COC(=O)Cc1c(C)n(Cc2ccccc2OC)c2ccc(OC)cc12	98 to 100 °C
Cc1c(OCC(=O)O)ccc2c(=O)c3c(F)cccc3oc12	259 to 261 °C
CCOc1ccc(C2=NN(C(=O)c3cccc(N)c3)CCC2)cc1OCC	162 to 163 °C
COC(=O)[C@H](Cc1ccc(CC(=O)O)cc1)NC(=O)OC(C)(C)C	141 to 143 °C
COC(=O)NCc1cc(OC)cc(Cl)c1Cl	90 to 91 °C
CCCN(CCC)C1Cc2cc3c(cc2C1)C(=O)N(Cc1cccnc1)C3=O	141 to 146 °C
C[C@H](c1ccccc1)N1CC(=NO)C2(CCC2)C1=O	203 to 208 °C
O=C(C=C(O)c1cccs1)C1CCN(Cc2ccccc2)CC1	80 to 83 °C
CNS(=O)(=O)c1ccccc1Nc1nc(Nc2ccc3c(c2)CCCC(=O)N3CC(=O)OC)ncc1Cl	237 to 239 °C
COc1ccccc1Cc1nc2ccccc2c(=O)n1CCCl	109 to 111 °C
OCc1ccccc1C(F)(F)C(F)(F)c1ccccc1	80 to 81 °C
